# Tested on: WT and Kvβ2−/− mice
# Assay: Arterial blood pressure (femoral artery catheter) during norepinephrine infusion
# Format: in vivo, mouse
# Conditions: norepinephrine infusion 5 μg/kg·min−1
# Excerpt: In vivo measurements of cardiac function and myocardial blood flow: Mice were anesthetized with 3% isoflurane and supplemental O2, administered (1 L·min^−1) in a small induction chamber. After induction, the mice were placed on a controlled heating table in a supine position. Anesthesia was maintained throughout the procedure by delivery of 1-2% isoflurane and supplemental O2 (0.5 L·min^−1). The extremities were secured to the surgical table by tape and a lubricated probe was inserted rectally to monitor body temperature. The chest, neck, and hind limb hair were then removed using a depilatory agent, the skin was rinsed with warm water, and the neck area was disinfected with 70% ethanol/betadine and an incision (10-15 mm) was made at the right side of the neck. […]
# Measurements of cardiac function, myocardial perfusion, and arterial blood pressure were performed at baseline, after administration of hexamethonium (5 mg·kg^−1, i.v.), and following successive doses of norepinephrine (0.5, 1.0, 2.5, and 5.0 μg·kg^−1·min^−1; 3 min duration each dose, followed by 3-5 min washout). […] Left ventricular volume at end diastole (LVEDV) and end systole (LVESV), as well left ventricular internal diameter at end diastole (LVID,d) and end systole (LVID,s) were measured at steady state after drug infusions. […]
smiles,measurement,setting,value
NC[C@H](O)c1ccc(O)c(O)c1 [norepinephrine],time of infusion after which norepinephrine-induced elevation of pressure declined,Kvβ2−/− mice,~40 s
same,increase in arterial blood pressure,WT animals,sustained for the duration of drug administration

# Reference: US20220226265A1, “METHODS OF CONTROLLING MYOCARDIAL BLOOD FLOW” (UNIVERSITY OF LOUISVILLE RESEARCH FOUNDATION, INC., priority 2021, published 2022)
